Among the data in patent US6265402A, “Use of 2-phenylmorpholin-5-one derivatives” (Nikken Chemicals Co., Ltd., priority 1996, dated 2001) are IC50 and ED50 values, retold here.

The structures appear in SMILES notation.

Assay [1] deals with Type IV PDE. In words: Type IV PDE inhibitory activity. Format: biochemical. As to conditions: Type IV PDE partially purified from rat neutrophils; 3H-cAMP substrate, 30° C., 30 minutes. Here is the method: Type I, III, IV, and V PDE isozymes were prepared to study the PDE inhibitory activities of and selectivities with the compound of the invention [Trends Pharmacol Sci., 12, 19-27 (1992)]. Type I PDE was purchased from Sigma Corp. Type III, IV, and V PDE isozymes were partially purified from platelets (Type III and V) or neutrophils (Type IV) collected from rats. Each enzyme source was homogenized in a buffer (pH 6.5) containing 20 mM bisTris, 2 mM EDTA (i.e., ethylenediamine tetraacetate), 0.1 mM PMSF (i.e., phenylmethylsulfonyl fluoride), 5 mM 2-mercaptoethanol, 0.001 mM pepstatin and 0.01 mM leupeptin and was centrifuged at 30000×G for 30 minutes to obtain a supernatant, which was applied to an ion exchange column (Q-sepharose First Flow, Pharmacia Corp.) and was eluted with 0 to 1M sodium acetate. Partially purified isozymes were identified by observing the effects by conventional inhibitors.
Each PDE isozyme and the test compound dissolved in DMSO (i.e., dimethyl sulfoxide) were added to 50 mM Tris-HCl buffer containing 5 mM magnesium chloride. ^3 H-cAMP (for type III and IV PDE) or ^3 H-cGMP (for type I and V PDE) were added as substrates and were reacted at 30° C. for 30 minutes. The reaction was terminated by placing the test tube in boiling water of 100° C. for 5 minutes. The nucleotides formed by PDE were broken down by 5'-nucleotidase to ^3 H-adenosine or 3H-guanosine. The unreacted substrate and reaction product were separated through an ion-exchange column (i.e., QAE sephadex, Pharmacia Corp.) The eluted ^3 H-nucleoside was measured for its radioactivity by a liquid scintillation counter. The inhibitory activities of the compound of the present invention are shown by the IC50 value (M). Further, the inhibitory activities of the test samples against Type I, III, and V are 1/10 or less than that against type IV.

In assay [2] the test system is rat neutrophils. Put plainly: Inhibitory action of super oxide anion release from rat neutrophils. Format: cell-based. As to conditions: Neutrophil, stimulation with 0.3 μM calcium ionophore A23187, chemiluminescence, Lusigenin. Here is the method: Inhibitory effects on activity of rat neutrophils
The release of super oxide anions was measured so as to study the inhibitory effects of the compound of the present invention on inflammatory leukocytes, that is, neutrophils.
Blood sample was collected from Wister rats anesthetized with ether. It was superposed on a blood cell separation solution (Polymorphoprep 1.113, made by Naicomed Farm), and the neutrophils were separated by centrifugation. The neutrophils were resuspended in a Hank's balanced salt solution at a concentration of 0.5×10^4 cells/ml 0.1 mM of Lusigenin and the test substance dissolved in DMSO were added to 2 ml of the cell-suspension. The chemiluminescence generated by stimulation of 0.3 μM calcium ionophore A23187 was measured by a chemiluminescence reader so as to evaluate the release of super oxide anions.

The subject of assay [3] is antigen-induced bronchospasms. Put plainly: Inhibitory effect on Antigen-Induced Bronchospasm (Anti-Asthmatic action). The format is in vivo. As to conditions: Cavia porcellus; Hartley male guinea pig sensitized with Ovalbumin; intravenous, 10 minutes before 0.2 mg/kg OA i.v.; Konzett-Roessler method; read-out: Action for suppressing antigen-induced bronchospasms ED50. The method, then:
Inhibitory effect on Antigen-Induced Bronchospasm (Anti-Asthmatic action)
A Hartley male guinea pig was sensitized by intramuscular administration of 35 mg Ovalbumin (OA) on first day and fourth day. A tracheal canula was introduced in the guinea pig anesthetized with pentobarbital and artificial ventilation was performed 25 to 29 days after the first sensitization. The overflow of the ventilation was measured by the Konzett-Roessler method while 0.2 mg/kg OA were administered intravenously. The test compound was dissolved in polyethylene glycol 400 and intravenously administered 10 minutes before administration of the antigens.

`COc1ccc(C2CNC(=O)CO2)cc1OC` (stereo not shown) [Compound No. 1, 2-(3,4-dimethoxyphenyl)morpholin-5-one]: the values for the concentration for half-maximal inhibition (IC50) in assay [1] and in assay [2] were 37 µM and 29 µM, respectively.
Turning to `COc1ccc(C2CNC(=O)CO2)cc1OC1CCCC1` (stereo not shown) [Compound No. 2, 2-(3-cyclopentyloxy-4-methoxyphenyl)morpholin-5-one], the figures for the 50% inhibitory concentration (IC50) in assay [1] and in assay [2] were 1.5 µM and 5.8 µM, respectively. The median effective dose (ED50) in assay [3] worked out at 0.48 mg/kg.
In turn, `CCCCOc1cc(C2CNC(=O)CO2)ccc1OC` (stereo not shown) [Compound No. 5, 2-(3-butoxy-4-methoxyphenyl)morpholin-5-one] showed a concentration for half-maximal inhibition (IC50) in assay [1] of 12 µM. Besides, the ED50 in assay [3] worked out at 3.6 mg/kg.
Turning to `COc1ccc(C2CNC(=O)CO2)cc1OCC1CC1` (stereo not shown) [Compound No. 8, 2-(3-cyclopropylmethoxy-4-methoxyphenyl)morpholin-5-one], in assay [1], the concentration for half-maximal inhibition (IC50) is 2.5 µM. The median effective dose (ED50) in assay [3] amounted to 4.31 mg/kg.
With `COc1ccc(C2(C)CNC(=O)CO2)cc1OC` (stereo not shown) [Compound No. 9, 2-(3,4-dimethoxyphenyl)-2-methylmorpholin-5-one], the IC50 in assay [1] came out at 16 µM; in assay [2], 1.6 µM.
Turning to `COc1ccc(C2CN(Cc3ccc(Br)cc3)C(=O)CO2)cc1OC1CCCC1` (stereo not shown) [Compound No. 13, 4-(4-bromobenzyl)-2-(3-cyclopentyloxy-4-methoxyphenyl)morpholin-5-one], the figures for the IC50 in assay [1] and in assay [2] were 1.8 µM and 1.4 µM, respectively.
In assay [1], `COc1ccc(C2CN(C)C(=O)CO2)cc1OC1CCCC1` (stereo not shown) [Compound No. 14, 2-(3-cyclopentyloxy-4-methoxyphenyl)-4-methylmorpholin-5-one] registered a half-maximal inhibitory concentration (IC50) of 0.31 µM. Moreover, in assay [3], the ED50 worked out at 2.1 mg/kg.
Turning to `COc1ccc(C2(C)CNC(=O)CO2)cc1OC1Cc2ccccc2C1` (stereo not shown) [Compound No. 27, 2-[3-(2-indanyloxy)-4-methoxyphenyl]-2-methylmorpholin-5-one], the half-maximal inhibitory concentration (IC50) in assay [1] was determined as 0.13 µM. In addition, the ED50 in assay [3] is 7.99 mg/kg.
For `COc1ccc(C2CNC(=O)CO2)cc1OCC1(C)CC1` (stereo not shown) [Compound No. 35, 2-[3-[(1-methylcyclopropyl)methoxy]-4-methoxyphenyl]morpholin-5-one] the same measures were 1.3 µM and 6.22 mg/kg.
Taken in the same sequence, the figures for `COc1ccc(C2CNC(=O)CO2)cc1OCC1CCCC1` (stereo not shown) [Compound No. 36, 2-(3-cyclopentylmethoxy-4-methoxyphenyl)morpholin-5-one] were 6.9 µM and 1 mg/kg.
Taken in the same sequence, the figures for `COc1ccc(C2CNC(=O)CO2)cc1OCC1CCC1` (stereo not shown) [Compound No. 38, 2-(3-cyclobutylmethoxy-4-methoxyphenyl)morpholin-5-one] were 4.6 µM and 7.83 mg/kg.
On to `COc1ccc(C2CNC(=O)CO2)cc1OCC(C)C` (stereo not shown) [Compound No. 39, 2-[3-(2-methylpropoxy)-4-methoxyphenyl]morpholin-5-one], for which the IC50 in assay [1] was determined as 7.8 µM. Also, in assay [3], the ED50 was 8.04 mg/kg.
Turning to `COc1ccc(C2CN(C)C(=O)CO2)cc1OCCc1cccc2ccccc12` (stereo not shown) [Compound No. 47], the IC50 in assay [1] came out at 0.3 µM.
Still for that read-out and setting: then `COc1ccc(C2CN(C)C(=O)CO2)cc1OCC1CCC1` (stereo not shown) [Compound No. 48, 2-(3-cyclobutylmethoxy-4-methoxyphenyl)-4-methylmorpholin-5-one], with 0.38 µM.
On the same count and under the same terms, then `COc1ccc(C2CN(C)C(=O)CO2)cc1OCC(C)C` (stereo not shown) [Compound No. 49, 2-[3-(2-methylpropoxy)-4-methoxyphenyl]-4-methylmorpholin-5-one], with 0.35 µM; and `COc1ccc(C2CNC(=O)CO2)cc1OCCC1Cc2ccccc2C1` (stereo not shown) [Compound No. 50, 2-[3-[2-(2-indanyl)ethoxy]-4-methoxyphenyl]morpholin-5-one], with 3.8 µM.
The same measure, in the same setting: then `COc1ccc(C2CN(C)C(=O)CO2)cc1OCCC1Cc2ccccc2C1` (stereo not shown) [Compound No. 51, 2-[3-[2-(2-indanyl)ethoxy]-4-methoxvphenyl]-4-methylmorpholin-5-one], with 0.1 µM.
In the case of `COc1ccc(C2CN(C)C(=O)CO2)cc1OCC1CC1` (stereo not shown) [Compound No. 52, 2-(3-cyclopropylmethoxy-4-methoxyphenyl)-4-methylmorpholin-5-one], the IC50 in assay [1] was 2.8 µM.
